Measurements taken from patent US9040573B2, “Anti-fungal agent” (Nihon Nohyaku Co., Ltd., priority 2011, dated 2015).
In brackets after ≈: the same amount, converted by molar mass. Where two headings read alike, the source gives them in different places.

What was measured:
Scytalidium dimidiatum = assay: Antifungal Activity Test 1: MIC by broth microdilution method (Alamar Blue); type: cell-based; conditions: for MIC: growth inhibited by 80% or more; for MIC90: concentration to be MIC in 9 strains out of the 10 strains (90%)
Source text: Scytalidium dimidiatum strain of clinical isolate obtained by separation and identification from nail or stratum corneum of patients with superficial mycosis was used. The fungi pre-cultured on an SDA medium was suspended in 0.1% (w/v) Tween 80-containing sterile saline and the suspension was filtered through gauze to collect arthrospore. This was suspended in 0.1% (w/v) Tween 80-containing sterile saline, and added to a 20% Alamar Blue-containing medium to 2×10^4 cells/mL to give a fungal inoculum solution.
(§1) Each drug was used after dissolving in DMSO (dimethyl sulfoxide).
(§2) The minimum inhibitory concentration (MIC) was measured by a broth microdilution method. That is, RPMI1640 medium (Sigma-Aldrich) was buffered with 0.165 M morpholine propanesulfonic acid (MOPS, Wako Pure Chemical Industries, Ltd.) to pH 7.0, and a given amount of a solution of the drug in DMSO was added thereto to prepare 2-fold dilution series within the range of 0.00098-4 μg/mL. This was added to a 96-well microplate by 100 μL, a fungal inoculum solution (100 μL, final concentration of fungi to be added: 1.0×10^4 cells/mL) was added, and the mixture was cultured at 35° C. An Alamar Blue reagent was added in advance to the culture medium (final addition concentration: 10%) and, at the time point when the Alamar Blue reagent in the drug-free growth control group changed from blue to red, the culture was discontinued and the absorbance (differential optical density at 570 nm based on 590 nm served as reference) measured. The minimum concentration of the drug that inhibited the growth of the fungus in the growth control group by 80% or more was taken as MIC. The concentration to be MIC (MIC90) in 9 strains out of the 10 strains (90%) measured was determined.
Reference documents for measurement method: Takako Shinoda et al.: opinion proposed by Committee for Clinical Laboratory Standards of The Japanese Society for Medical Mycology (1995-1997), Method for antifungal susceptibility testing of filamentous fungus, Medical Mycology Journal, 40: 239-257, 1999. Clinical Laboratory Standards Institute/National Committee for Clinical Laboratory Standards. Reference method for broth dilution antifungal susceptibility testing of filamentous fungus. Approved Standard M38-A2. Wayne, Pa.: National Committee for Clinical Laboratory Standards, 2008. Test Results

Scytalidium hyalinum = assay: Antifungal Activity Test 2: MIC by broth microdilution method (Alamar Blue); type: cell-based
Protocol: as §2
Scytalidium hyalinum strain of clinical isolate available from CBS (Netherlands) was used. The fungus was pre-cultured in an SDA medium, 0.1% (w/v) Tween 80-containing sterile saline was added to give a suspension, which was filtered through gauze to collect arthrospore. This was suspended in 0.1% (w/v) Tween 80-containing sterile saline, and added to a 20% Alamar Blue-containing medium to 2×10^4 cells/mL to give a fungal inoculum solution.
as §1
The test method was the same as in the aforementioned antifungal activity test 1, and the minimum concentration of the drug that inhibited the growth of the fungus in the growth control group by 80% or more was taken as MIC. The MIC range of the 4 strains measured and the geometric mean (GM) of each drug were determined.

[1] = Neoscytalidium dimidiatum, clinical isolate 530129, read-out: MIC
[2] = Neoscytalidium dimidiatum, clinical isolate 530142, read-out: MIC
[3] = Neoscytalidium dimidiatum, clinical isolate 530251, read-out: MIC
[4] = Neoscytalidium dimidiatum, clinical isolate 530621, read-out: MIC
[5] = Neoscytalidium dimidiatum, clinical isolate 530633, read-out: MIC
[6] = Neoscytalidium dimidiatum, clinical isolate 530914, read-out: MIC
[7] = Neoscytalidium dimidiatum, clinical isolate 530946, read-out: MIC
[8] = Neoscytalidium dimidiatum, clinical isolate 530999, read-out: MIC
[9] = Neoscytalidium dimidiatum, clinical isolate 531581, read-out: MIC
[10] = Neoscytalidium dimidiatum, clinical isolate 531869, read-out: MIC
[11] = Neoscytalidium dimidiatum, read-out: MIC90
[12] = Neoscytalidium hyalinum, clinical isolate CBS200.88, growth inhibited by 80% or more, read-out: MIC
[13] = Neoscytalidium hyalinum, clinical isolate CBS545.95, growth inhibited by 80% or more, read-out: MIC
[14] = Neoscytalidium hyalinum, clinical isolate CBS601.85, growth inhibited by 80% or more, read-out: MIC
[15] = Neoscytalidium hyalinum, clinical isolate CBS619.84, growth inhibited by 80% or more, read-out: MIC
[16] = Neoscytalidium hyalinum, geometric mean of the 4 strains measured, read-out: GM (geometric mean of MIC)
[17] = Neoscytalidium hyalinum, range of the 4 strains measured, read-out: MIC range

Row | Compound | MIC (Scytalidium dimidiatum; [1]) [mg/L] | MIC (Scytalidium dimidiatum; [2]) [mg/L] | MIC (Scytalidium dimidiatum; [3]) [mg/L] | MIC (Scytalidium dimidiatum; [4]) [mg/L] | MIC (Scytalidium dimidiatum; [5]) [mg/L] | MIC (Scytalidium dimidiatum; [6]) [mg/L] | MIC (Scytalidium dimidiatum; [7]) [mg/L] | MIC (Scytalidium dimidiatum; [8]) [mg/L] | MIC (Scytalidium dimidiatum; [9]) [mg/L] | MIC (Scytalidium dimidiatum; [10]) [mg/L] | MIC90 (Scytalidium dimidiatum; [11]) [mg/L] | MIC (Scytalidium hyalinum; [12]) [mg/L] | MIC (Scytalidium hyalinum; [13]) [mg/L] | MIC (Scytalidium hyalinum; [14]) [mg/L] | MIC (Scytalidium hyalinum; [15]) [mg/L] | MIC (Scytalidium hyalinum; [16]) [mg/L] | MIC (Scytalidium hyalinum; [17]) [mg/L] | other results
1 | Clc1ccc(COC(Cn2ccnc2)c2ccc(Cl)cc2Cl)c(Cl)c1 (stereo not shown) [MCZ, miconazole] | 1 (≈ 2.4 µM) | 1 (≈ 2.4 µM) | 1 (≈ 2.4 µM) | 1 (≈ 2.4 µM) | 0.5 (≈ 1.2 µM) | 1 (≈ 2.4 µM) | 1 (≈ 2.4 µM) | 0.5 (≈ 1.2 µM) | 0.5 (≈ 1.2 µM) | 0.5 (≈ 1.2 µM) | 1 (≈ 2.4 µM) | 0.5 (≈ 1.2 µM) | 0.5 (≈ 1.2 µM) | 0.063 (≈ 0.151 µM) | 0.5 (≈ 1.2 µM) | 0.3 (≈ 0.721 µM) | 0.063 to 0.5 (≈ 0.151 to 1.2 µM) | 
2 | C[C@@H]1[C@H](O)[C@@H](C)/C=C/C=C/C=C/C=C/C=C/C=C/C=C/[C@H](O[C@@H]2O[C@H](C)[C@@H](O)[C@H](N)[C@@H]2O)C[C@@H]2O[C@](O)(C[C@@H](O)C[C@@H](O)[C@H](O)CC[C@@H](O)C[C@@H](O)CC(=O)O[C@H]1C)C[C@H](O)[C@H]2C(=O)O [AMPB, amphotericin B] |  |  |  |  |  |  |  |  |  |  |  |  |  |  |  |  |  | MIC (Scytalidium dimidiatum; clinical isolate 530129): 0.25 mg/L (≈ 0.271 µM); MIC (Scytalidium dimidiatum; clinical isolate 530142): 0.13 mg/L (≈ 0.141 µM); MIC (Scytalidium dimidiatum; clinical isolate 530251): 0.25 mg/L (≈ 0.271 µM); MIC (Scytalidium dimidiatum; clinical isolate 530621): 0.25 mg/L (≈ 0.271 µM); MIC (Scytalidium dimidiatum; clinical isolate 530633): 0.25 mg/L (≈ 0.271 µM); MIC (Scytalidium dimidiatum; clinical isolate 530914): 0.13 mg/L (≈ 0.141 µM); MIC (Scytalidium dimidiatum; clinical isolate 530946): 0.25 mg/L (≈ 0.271 µM); MIC (Scytalidium dimidiatum; clinical isolate 530999): 0.5 mg/L (≈ 0.541 µM); MIC (Scytalidium dimidiatum; clinical isolate 531581): 0.25 mg/L (≈ 0.271 µM); MIC (Scytalidium dimidiatum; clinical isolate 531869): 0.25 mg/L (≈ 0.271 µM); MIC90 (Scytalidium dimidiatum): 0.25 mg/L (≈ 0.271 µM); MIC (Scytalidium hyalinum; clinical isolate CBS200.88, growth inhibited by 80% or more): 0.5 mg/L (≈ 0.541 µM); MIC (Scytalidium hyalinum; clinical isolate CBS545.95, growth inhibited by 80% or more): 1 mg/L (≈ 1.08 µM); MIC (Scytalidium hyalinum; clinical isolate CBS601.85, growth inhibited by 80% or more): 0.5 mg/L (≈ 0.541 µM); MIC (Scytalidium hyalinum; clinical isolate CBS619.84, growth inhibited by 80% or more): 0.5 mg/L (≈ 0.541 µM); GM (geometric mean of MIC) (Scytalidium hyalinum; geometric mean of the 4 strains measured): 0.59 mg/L; MIC range (Scytalidium hyalinum; range of the 4 strains measured): 0.5 to 1 mg/L
3 | N#C/C(=C1/SC[C@@H](c2ccc(Cl)cc2Cl)S1)n1ccnc1 [LLCZ, (−)-(E)-[(4R)-(2,4-dichlorophenyl)-1,3-dithioran-2-ylidene](1H-imidazol-1-yl)acetonitrile] | 0.002 (≈ 0.00565 µM) | 0.002 (≈ 0.00565 µM) | 0.002 (≈ 0.00565 µM) | 0.002 (≈ 0.00565 µM) | 0.002 (≈ 0.00565 µM) | 0.002 (≈ 0.00565 µM) | 0.002 (≈ 0.00565 µM) | 0.002 (≈ 0.00565 µM) | 0.002 (≈ 0.00565 µM) | 0.00098 (≈ 0.00277 µM) | 0.002 (≈ 0.00565 µM) | 0.00098 (≈ 0.00277 µM) | 0.00098 (≈ 0.00277 µM) | 0.00012 (≈ 0.000339 µM) | 0.00098 (≈ 0.00277 µM) | 0.00058 (≈ 0.00164 µM) | 0.00012 to 0.00098 (≈ 0.000339 to 0.00277 µM) | 
4 | Clc1ccccc1C(c1ccccc1)(c1ccccc1)n1ccnc1 [CTZ, clotrimazole] | 0.5 (≈ 1.45 µM) | 0.5 (≈ 1.45 µM) | 0.25 (≈ 0.725 µM) | 0.5 (≈ 1.45 µM) | 0.5 (≈ 1.45 µM) | 0.5 (≈ 1.45 µM) | 0.5 (≈ 1.45 µM) | 0.25 (≈ 0.725 µM) | 0.25 (≈ 0.725 µM) | 0.25 (≈ 0.725 µM) | 0.5 (≈ 1.45 µM) | 0.13 (≈ 0.377 µM) | 0.13 (≈ 0.377 µM) | 0.13 (≈ 0.377 µM) | 0.25 (≈ 0.725 µM) | 0.15 (≈ 0.435 µM) | 0.13 to 0.25 (≈ 0.377 to 0.725 µM) | 
5 | N#C/C(=C1/SCC(c2ccccc2Cl)S1)n1ccnc1 (stereo not shown) [LCZ, [4-(2-chlorophenyl)-1,3-dithioran-2-ylidene](1H-imidazol-1-yl)acetonitrile] | 0.0039 (≈ 0.0122 µM) | 0.002 (≈ 0.00625 µM) | 0.0039 (≈ 0.0122 µM) | 0.0039 (≈ 0.0122 µM) | 0.0039 (≈ 0.0122 µM) | 0.0039 (≈ 0.0122 µM) | 0.0039 (≈ 0.0122 µM) | 0.002 (≈ 0.00625 µM) | 0.0039 (≈ 0.0122 µM) | 0.002 (≈ 0.00625 µM) | 0.0039 (≈ 0.0122 µM) | 0.002 (≈ 0.00625 µM) | 0.00098 (≈ 0.00306 µM) | 0.00024 (≈ 0.00075 µM) | 0.002 (≈ 0.00625 µM) | 0.00098 (≈ 0.00306 µM) | 0.00024 to 0.002 (≈ 0.00075 to 0.00625 µM) | 
